In patent US20020168685A1, “Covalent chemical inducers of protein dimerization and their uses in high throughput binding screens” (priority 2001, published 2002):

Assays:
GR fusion proteins = conditions: cited from earlier work
[1] = test system: S. cerevisiae strain FY250
Text: The plasmids encoding the LexA- and B42-fusion proteins were introduced in all necessary combinations into S. cerevisiae strain FY250 containing a plasmid encoding the lacZ reporter plasmid.
All of these experiments have been done as plate assays. The toxicity of the ligand and receptor is judged simply by seeing if either induction of the receptor fusions or application of the ligand to the plate impairs cell growth.

C[C@@H]1C[C@H]2[C@@H]3CCC4=CC(=O)C=C[C@]4(C)[C@@]3(F)[C@@H](O)C[C@]2(C)[C@@]1(O)C(=O)CO [DEX, Dexamethasone]
cell permeability (GR fusion proteins): cell permeable | modification or breakdown in the cell (GR fusion proteins): not modified or broken down in the cell | toxicity (impaired cell growth) [1]: neither DEX nor GR are toxic
